What was measured:
[1] = tested on: hedgehog-responsive Gli-Luc reporter-construct; test: Gli-Luc hedgehog pathway reporter assay in [10T1/2(s12)] cells; type: cell-based, murine; details: Table 1
Experimental: To measure the hedgehog agonist activity of compounds, we used [10T1/2(s12)] cells containing the hedgehog-responsive Gli-Luc reporter-construct. In each MTP (MicroTiter Plate; 96-well plate), 10,000-20,000 cells were plated per well, in full media (10% FBS). After about 24-48 hr, plates were switched to low-serum media (=0.5%. FBS). Subsequently, a test compound was added at 1-5 μM in the presence or absence of octyl-hedgehog (see below). After another 24 hr, the media from the MTPs was discarded and replaced with luciferase assay-mix, containing lysis-buffer with luciferase substrate. The plates were incubated at RT for about 15-30 min and read in a luminometer.
Plates were incubated for 48 hr before switching to low-serum. Compounds were screened at 1-2 μM in the presence of Hh protein (0.01 μg/ml; EC30=about 30% of max-induced activity).
Plates were incubated for 24 hr before switching to low-serum. Compounds were screened at 5 μM without adding Hh protein.
From Screen A, we identified hits identified in FIGS. 32 and 33. The 1,4-diaminocyclohexane subunit of the compounds of FIG. 32 which include this moiety have the two amino substituents disposed in a trans-relationship, e.g., both substituents equatorial on the cyclohexane subunit. These hits were confirmed in Screen B. The data shown in FIGS. 34a and 34b essentially involved dosing the two compounds in both assays (Gli-Luc & SV-Luc).
The data from the Gli-Luc assay is converted to percent activity where full activity with Hh protein is set at 100% (FIG. 35; Table 1). […] Furthermore, the compounds show a more striking induction in the presence of hedgehog (EC50=0.2-0.3 μM, ECmax=70-90% of max induced activity with Hh protein), indicating a synergy between the compounds and Hh protein, consistent with the compounds serving as agonists for the hedgehog pathway.

[2] = tested on: malonate induced striatal lesion; test: Rat malonate lesion model of Huntington's disease; type: in vivo; details: 300 μM in Alzet pump into brain ventricles, 1 μl/hr for 6 days pretreatment; vs vehicle, p=0.0159
Experimental: Malonate is a mitochondrial toxin and defects in mitochondrial energy metabolism are thought to play a role in the pathology of neurodegenerative diseases such as HD. When malonate is injected into the rat striatum a lesion forms in this brain region. The experiments described below tested whether the Hh agonist would reduce the size of the malonate induced striatal lesion. Hh agonist was administered directly into the brain ventricles of male SD rats via a cannula attached to an osmotic Alzet pump. […] After 6 days of pretreatment with compound, malonate was injected directly into the brain striatum and the Alzet pump was removed. Four days later rats were euthanized and the brains were sliced into 2 mm slabs. The slices were placed in a 2% solution (TTC) that stains living tissue red and the striatal infarct white. The size of the infarct (% infarct) was measured using image analysis software and the data were analyzed by one-way ANOVA followed by appropriate post-hoc tests (p<0.05).

SVZ precursor cells = test: SVZ precursor cell proliferation (BrdU) after direct brain administration in adult rats; type: in vivo, rat; details: 200 μM in pump into brain ventricles, 0.5 μl/hr for 6 days; p<0.05
Experimental: Hh agonist was administered directly into the brain ventricles of male SD rats via a cannula attached to an osmotic Alzet pump. The pumps were filled with either vehicle (5% 2-hydroxypropyl-B-cyclodextrin, 4.35% Mannitol, 0.2% DMSO) or Hh agonist (U″ ranging from 10-600 μM) and the pump released compound into the ventricles at constant rate of 0.5 μl/hr for 6 days. After 6 days of pretreatment with compound, animals were injected with Bromodeoxyuridine (BrdU, 50 mg/kg, ip) to label dividing cells. Two hours after BrdU treatment, rats were euthanized and perfused with fixative. Brains were collected and processed for BrdU immunohistochemistry. The number of BrdU-immunoreactive (BrdU-IR) cells was then counted in the SVZ on both the sides of the brain with the cannula (ipsilateral) and without (contralateral).

[3] = tested on: middle cerebral artery occlusion infarct; test: Mouse MCAO model of stroke; type: in vivo
Experimental: In this animal model, a small suture is inserted into the common carotid artery and threaded directly into the circulatory system of the brain. The suture is placed such that it blocks blood flow though the middle cerebral artery (MCA occlusion), which is the primary source of blood to the forebrain. After a set period of time, here 90 min, the suture is removed and blood flow to the forebrain is restored (reperfusion). The temporary blockage of blood flow to the forebrain results in behavioral symptoms and brain pathology that mimic those seen in human stroke patients. In the brain, within 24 hr post-MCA occlusion an infarct is visible using a stain (TTC) that stains living tissue red and the infarcted area white. The infarct following a 90 min MCAO usually involves both cortical and subcortical brain regions. In this study, mice were treated for 3 days (1/day) prior to MCAO with either vehicle (0.5% methyl cellulose, 0.2% Tween-80/0.9% NaCl, n=12) or the Hh agonist X″ (20 mg/kg, po, n=11). Animals were then subjected to 90 min MCAO followed by reperfusion. Approximately 24 hr after the start of occlusion ([…] of reperfusion) mice were euthanized and the brain sectioned into 2 mm slabs. The brain slices were stained with TTC to show the infarcted area of the brain. The infarct area/total forebrain (% infarct) was analyzed by measured and statistically analyzed. Male mice (7-8 wks of age) were subjected to 90 min MCAO followed by reperfusion. Animals were then treated with either vehicle (n=11) or the Hh agonist X″ (20 mg/kg, po, n=12) at the onset of reperfusion (90 min post-occlusion). Twenty-four hours after the onset of MCAO mice were euthanized, the brain sectioned into 2 mm slabs and slices stained with TTC for infarct size analysis.

[4] = tested on: nigrostriatal pathway (striatal DA and TH); test: Mouse MPTP model of Parkinson's disease; type: in vivo; details: pretreatment 0.3, 1, 3, and 10 mg/kg po for 3 days before MPTP; seven days post-lesioning, vs vehicle
[5] = tested on: neural precursor cells (SVZ and SG); test: Neural precursor cell proliferation (BrdU) after oral administration in adult mouse; type: in vivo; details: 7 days BID, 10 mg/kg or 25 mg/kg
Experimental: To test whether oral administration of the Hh agonist would affect proliferation of precursor cells, mice were dosed daily (once or twice/day, po) with either vehicle or the Hh agonist X″ for 1-7 days. On the appropriate day, mice were injected with BrdU (ip) and 2 hours later euthanized, perfused with fixative and brains processed for BrdU immunohistochemistry. The number of BrdU-IR cells was counted in both the SVZ and subgranular zone of the hippocampal dentate gyrus (SG).
The data shown in FIGS. 57 and 58 are from a study in which mice were dosed orally for 7 days (BID) with either vehicle (n=4) or Hh agonist X″ (10 mg/kg, n=3 or 25 mg/kg, n=3). The day after the final dose, mice were injected with BrdU and 2 hrs. later brains were collected, processed, and analyzed as described above.

| SMILES | EC50 [1] [nM] | size of malonate-induced infarct (% infarct) [2] | number of BrdU-IR cells in SVZ (SVZ precursor cells) | cortical and subcortical lesion size ([3]; post-MCAO treatment 20 mg/kg po at onset of reperfusion) | size of the infarct ([3]; post-MCAO treatment 20 mg/kg po at onset of reperfusion, p<0.05) | cortical infarct size ([3]; pre-MCAO treatment 20 mg/kg po 1/day for 3 days, p=0.052) | total infarct size ([3]; pre-MCAO treatment 20 mg/kg po 1/day for 3 days, p=0.057) | attenuation of damage to the nigrostriatal pathway (striatal DA and TH activity) [4] [%] | number of proliferating cells in the SG of the dentate gyrus [5] | number of BrdU labeled cells in the SVZ ([5]; p<0.05) |
| --- | --- | --- | --- | --- | --- | --- | --- | --- | --- | --- |
| CN[C@H]1CC[C@H](N(Cc2cccc(-c3ccncc3)c2)C(=O)c2sc3c(F)ccc(F)c3c2Cl)CC1 [U′′] | < 5 | reduced the size of the malonate-induced infarct | dramatically increased on both sides of the brain | – | – | – | – | – | – | – |
| CN[C@H]1CC[C@H](N(Cc2ccc(OC)c(-c3ccc(C#N)cc3)c2)C(=O)c2sc3c(F)ccc(F)c3c2Cl)CC1 [X′′] | < 5 | – | – | dramatically reduced both cortical and subcortical lesion size | significantly decreased the size of the infarct | marked reduction in cortical infarct size | dramatically reduced | ~260 | increased the number of proliferating cells in the SG of the dentate gyrus | increased the number of BrdU labeled cells in the SVZ |

— patent publication US8129425B2, “Small organic molecule regulators of cell proliferation” (Curis, Inc., priority 2000, dated 2012)
